Where two headings read alike, the source gives them in different places.

Series [1] deals with mice. The settings on record: for number of death cases: group of ten mice. The text has this:
All the dead or surviving animals are autopsied, the stomach and the small intestine are examined for heamorrhages or ulcers.

Series [2] deals with stimulated secretion of gastric juice. Put plainly: stimulated gastric acid secretion in anaesthetised perfused rats (Ghosh and Schild, modified by Lai), intravenous injection. It is filed as in vivo, rat. As to conditions: for % inhibition of pentagastrin stimulated acid secretion / % inhibition of gastrin I stimulated acid secretion: i.v. Here is the method: A first series of experiments was carried out on male Wistar rats weighing 300 to 325 g. The procedure used was that of Ghosh and Schild, modified by Lai. The rats fasted for the 18 hours preceding the test. On the day of the test the rats were anaesthesized with urethane by the intraperitoneal route at a rate of 1.20 g of urethane per kilogramme. The rectal temperature was maintained at 34°±1° C. by means of an anal probe connected to a thermometer which electronically controlled the lighting up of a 100 Watt lamp positioned above each rat. An oesophageal probe (polyethylene catheter) was introduced up to the oesophagus--rumen junction of the rat and another catheter was introduced into the pyloric opening via the duodenum. The stomach was perfused with a solution of physiological serum introduced by means of the oesophageal tube at a constant speed of 1 ml/mn and was collected every ten minutes by the pyloroduodenal probe.
The rats prepared in this way were left to rest for a period of at least 45 minutes. The perfusate sampled every 10 minutes was then determined by means of a 0.01 N soda solution at pH 8.45, corresponding to a phenolphthalein colour change or at pH 7.4 with an automatic titration apparatus at constant pH.
After determining the basal acid secretion of the gastric juice on at least four consecutive samples a dose of gastrin was intravenously administered to the rats in the vein of the penis and subsequently the response to this stimulation was recorded until the secretion returned to the basal level over a period of at least twice 10 minutes. […] The results are expressed in microequivalents of hydrochloric acid per 40 minutes and are calculated as follows: either as the number of secreted microequivalents after stimulation less the number of microequivalents secreted in the 40 minutes prior to the injection of the dose, or as an acid peak, i.e., taking the average of the two consecutive maximum responses for each dose less the average value for the two basal values preceding the injection.
The transformation into double inverse makes it possible by analogy with enzymatic reactions to conclude whether the inhibition is of the competitive type or not.

The test system is the same in series [3]. The series can be described thus: gastric acid secretion in rats under continuous intravenous perfusion. It is filed as in vivo, rat. Here is the method:
In a second series of experiments an intravenous perfusion of an isotonic solution of […] sodium chloride was administered at a rate of 2.4 ml/h to rats prepared in the manner indicated hereinbefore according to the procedure of Ghosh and Schild, modified by Lai. This perfusion was administered to the vein of the penis.
The rats prepared in this manner were left at rest for at least 45 minutes, then the acidity was determined as hereinbefore on the gastric perfusate sampled every 10 minutes. […] At the end of the first hour a dose of gastrin I was added to the perfusion. The results obtained are given in FIG. 5a showing the variations of the gastric secretion as a function of time.

On to `CSCC[C@H](NC(=O)[C@H](Cc1c[nH]c2ccccc12)NC(=O)CCNC(=O)OC(C)(C)C)C(=O)N[C@@H](CC(=O)O)C(=O)N[C@@H](Cc1ccccc1)C(N)=O` [pentagastrin, Boc-Gly-Trp-Met-Asp-phe-NH2, reference compound], for which the “number of death cases” value is listed as 1 in series [1] (1280 μg/kg i.p., 2 h); 1 in series [1] (1280 μg/kg i.p., 6 h); 2 in series [1] (2560 μg/kg i.p., 2 h); 1 in series [1] (2560 μg/kg i.p., 48 h). Further, the “dose at which digestive hemorrhages are observed” value in series [1] (i.p., importance increases with the dose) is at least 0.32 mg/kg. Further, the “LD 50” value in series [1] (i.p., logit-log paper) is “higher than 3.2 mg/kg”.

Regarding “Boc-Gly-Trp-(NPS)-Met-Aspe-Phe-NH2 [pentagastrin-NPS]”, in series [2] (pentagastrin-NPS associated with pentagastrin), the “inhibition of pentagastrin action” value was “inhibits the pentagastrin action”. The “% inhibition of pentagastrin stimulated acid secretion” value in series [2] (ratio pentagastrin-NPS/pentagastrin 1/1, 50 ng pentagastrin-NPS with 50 ng pentagastrin) is recorded as 100%; in series [2] (ratio pentagastrin-NPS/pentagastrin 1/2, 50 ng pentagastrin-NPS with 100 ng pentagastrin), 100%; in series [2] (ratio pentagastrin-NPS/pentagastrin 1/3, 50 ng pentagastrin-NPS with 150 ng pentagastrin), 75%; in series [2] (ratio pentagastrin-NPS/pentagastrin 1/4, 50 ng pentagastrin-NPS with 200 ng pentagastrin), under 20%. Further, the “number of death cases” value in series [1] (1280 μg/kg i.p., 24 h) is recorded as 1; in series [1] (2560 μg/kg i.p., 6 h), 1; in series [1] (2560 μg/kg i.p., 24 h), 1; in series [1] (2560 μg/kg i.p., 48 h), 2. Also, the “petechiae at autopsy” value in series [1] (2560 μg/kg i.p.) is listed as “a few petechiae are observed”. In addition, the “digestive hemorrhage at autopsy” value in series [1] (160 to 2560 μg/kg i.p.) was “does not lead to any digestive hemorrhage”. Also, the “doses leading to no modifications (petechiae) of the stomach and of the intestine” value in series [1] (i.p.) was “under 2,5 mg/kg”.

“orthonitrophenyl sulphenylated gastrin I [gastrin I-NPS]”: the “type of inhibition of gastrin I response (double inverse representation)” value in series [2] (100 or 200 ng gastrin I-NPS with each dose of gastrin I) was “inhibition is competitive”. Further, the “% inhibition of gastrin I stimulated acid secretion” value in series [2] (ratio gastrin I-NPS/gastrin I 1/1, 50 ng gastrin NPS with 50 ng gastrin I) is recorded as 100%; in series [2] (ratio gastrin I-NPS/gastrin I 1/2, 50 ng gastrin NPS with 100 ng gastrin I), 75%; in series [2] (ratio gastrin I-NPS/gastrin I 1/3, 50 ng gastrin NPS with 150 ng gastrin I), 65%; in series [2] (ratio gastrin I-NPS/gastrin I 1/4, 50 ng gastrin NPS with 200 ng gastrin I) it was under 35%. For the same molecule, the “time until stimulated secretion plateau after introduction of gastrin I” value came out at 30 min in series [3] (100 ng/h gastrin I-NPS with 200 ng/h gastrin I, plateau at a lower level) and 40 min in series [3] (100 ng/h gastrin I-NPS with 400 ng/h gastrin I, plateau reaches the level of 100 ng/h gastrin I). Besides, in series [3] (100 ng/h in intravenous perfusion), the “secretory response to the substance alone” value is “causes no secretory response”.

For the origin of these results see patent publication US4164571A, “Medicament which antagonizes the action of gastrin and related polypeptides” (Commissariat a l'Energie Atomique, priority 1976, dated 1979).
